Consider 11 compounds from ChEMBL document CHEMBL1201862, “PubChem BioAssay data set” (2004).

Among the test systems are SK-MEL-2; SK-MEL-5; OVCAR-8; Malme-3M; NCI-H23; HL-60; RPMI-8226; ACHN; MOLT-4; HCC 2998; SR; UACC-257; KM12; SN12C; SF-268; OVCAR-5; HOP-62; UACC-62; SNB-75; MDA-MB-231.
Holding throughout (assay): inhibition of tumour cell growth, NCI panel, 48 h

Each structure is given as a SMILES string.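 Growth conditions: 96-well plates. Treatment: test compound, 48 hours, 5 concentrations. Analysis: linear interpolation between bracketing concentrations; unreached endpoints set to highest concentration. GI50 is the concentration that inhibits growth by half.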 The source made the active and inactive calls. Cut-off read from the data, not from the text of the source: active = GI50 up to about 1.1 µM and inactive = higher.

For `COC(=O)/C([Se]c1c(C)cc(C)cc1C)=C(/[Se]c1c(C)cc(C)cc1C)C(=O)OC`, the GI50 in the assay with SK-MEL-2 is > 100 µM (inactive); in the assay on SK-MEL-5, 86.3 µM (inactive); in the assay on OVCAR-8, > 100 µM (inactive); in the assay on Malme-3M, > 100 µM (inactive); in the assay on NCI-H23, > 100 µM (inactive); with HL-60, > 100 µM (inactive). In addition, the GI50 in the assay on RPMI-8226 was 76 µM (inactive); in the assay on ACHN it was > 100 µM (inactive); in the assay on MOLT-4, 47.3 µM (inactive); in the assay with HCC 2998, > 100 µM (inactive); in the assay on SR, 39.9 µM (inactive); in the assay on UACC-257, > 100 µM (inactive). The GI50 with KM12, in the assay with SN12C, with SF-268, with OVCAR-5, in the assay on HOP-62 and in the assay on UACC-62 was > 100 µM (inactive) each time. In addition, the GI50 with SNB-75 is > 100 µM (inactive).
Regarding `Ic1cc2c(cc1C1SCCCS1)OCO2`, the GI50 in the assay with SK-MEL-2 is > 100 µM (inactive); with SK-MEL-5, > 100 µM (inactive); in the assay with OVCAR-8 it was > 100 µM (inactive); with Malme-3M, > 100 µM (inactive); in the assay with NCI-H23, 64.7 µM (inactive); in the assay on HL-60, > 100 µM (inactive). Besides, the GI50 in the assay with RPMI-8226, in the assay on ACHN, in the assay on MOLT-4, in the assay with HCC 2998, with SR and in the assay with UACC-257 was > 100 µM (inactive) in each case. Further, the GI50 with KM12, in the assay with SN12C, in the assay on SF-268, in the assay on OVCAR-5, in the assay with HOP-62 and in the assay on UACC-62 was > 100 µM (inactive) throughout. Besides, the GI50 with SNB-75 is > 100 µM (inactive).
On to `COc1cc(OC)c2c(c1)C(=O)C(CC1(C)OCCCO1)=CC2=O`, for which the GI50 in the assay on SK-MEL-2 is 15.2 µM (inactive); with SK-MEL-5, 8.04 µM (inactive); in the assay with OVCAR-8 it was 9.27 µM (inactive); with Malme-3M, 8.45 µM (inactive); in the assay on NCI-H23, 13.2 µM (inactive); in the assay on HL-60, 2.17 µM (inactive). Besides, the GI50 in the assay on RPMI-8226 is 3.78 µM (inactive); in the assay with ACHN, 9.75 µM (inactive); with MOLT-4, 2.05 µM (inactive); in the assay with HCC 2998, 17.9 µM (inactive); in the assay on SR it was 1.29 µM (inactive); with UACC-257, 13 µM (inactive). For the same compound, the GI50 in the assay on KM12 was 14.3 µM (inactive); in the assay on SN12C, 14 µM (inactive); with SF-268, 13.9 µM (inactive); in the assay on OVCAR-5, 16.9 µM (inactive); in the assay on HOP-62, 19.1 µM (inactive); in the assay on UACC-62 it was 5 µM (inactive). Also, the GI50 in the assay with SNB-75 is 11 µM (inactive).
As for `Cc1ccc(C[N+](C)(C)N)cc1C`, the GI50 in the assay with SK-MEL-5, in the assay on OVCAR-8, in the assay on Malme-3M, in the assay with NCI-H23, with HL-60 and with RPMI-8226 was > 10 µM (inactive) in each case. Moreover, the GI50 in the assay with ACHN, in the assay with MOLT-4, with HCC 2998, in the assay with UACC-257, in the assay with KM12 and with MDA-MB-231 was > 10 µM (inactive) throughout. Further, the GI50 in the assay on SN12C, with SF-268, in the assay on OVCAR-5, with HOP-62, in the assay with UACC-62 and in the assay with SNB-75 was > 10 µM (inactive) in each case.
On to `CC(=O)OCC1=C(CCC#N)N2C(=O)C(NC(=O)Cc3cccs3)C2[S+]([O-])C1` (configuration not stated), for which the GI50 with SK-MEL-2, with SK-MEL-5, in the assay on OVCAR-8, in the assay with Malme-3M, in the assay on NCI-H23 and in the assay on HL-60 was > 100 µM (inactive) in each case. In addition, the GI50 with RPMI-8226, in the assay with ACHN, in the assay on MOLT-4, in the assay on HCC 2998, in the assay on SR and in the assay with UACC-257 was > 100 µM (inactive) in each case. Besides, the GI50 in the assay with KM12, with SN12C, in the assay with SF-268, in the assay on OVCAR-5, in the assay on HOP-62 and in the assay on UACC-62 was > 100 µM (inactive) in each case. The GI50 with SNB-75 is > 100 µM (inactive).
For `CC(=O)OCCOCNC(=S)N/N=C/c1ccc2ccccc2n1`, the GI50 in the assay on SK-MEL-2 was > 100 µM (inactive); with SK-MEL-5, 23.9 µM (inactive); in the assay on OVCAR-8, 37.1 µM (inactive); in the assay on Malme-3M it was 55.5 µM (inactive); in the assay with NCI-H23, 73.1 µM (inactive); in the assay with HL-60, 36.4 µM (inactive). The GI50 in the assay with RPMI-8226 is > 100 µM (inactive); with ACHN, 23 µM (inactive); with MOLT-4, > 100 µM (inactive); with HCC 2998, 31.7 µM (inactive); with SR it was 24.8 µM (inactive); with UACC-257, 48.9 µM (inactive). Further, the GI50 with KM12 was 55.7 µM (inactive); in the assay with SN12C, 48 µM (inactive); with SF-268, 34.9 µM (inactive); with OVCAR-5, 14.3 µM (inactive); with HOP-62, 45.1 µM (inactive); in the assay with UACC-62, 21.8 µM (inactive). In addition, in the assay with SNB-75, the GI50 was 51.3 µM (inactive).
On to `Oc1ccc2ccccc2c1/N=N/c1cc(Cl)ccc1Cl`, for which the GI50 in the assay with SK-MEL-2 is 28.4 µM (inactive); in the assay with SK-MEL-5 it was 38.5 µM (inactive); with OVCAR-8, 10.4 µM (inactive); in the assay with Malme-3M, 24.1 µM (inactive); in the assay with NCI-H23 it was 44.5 µM (inactive); with HL-60, 22.6 µM (inactive). In addition, the GI50 in the assay on RPMI-8226 was > 50 µM (inactive); in the assay with ACHN, 11 µM (inactive); in the assay with MOLT-4 it was 15.4 µM (inactive); in the assay on UACC-257 it was > 50 µM (inactive); in the assay on KM12, 17.7 µM (inactive); with MDA-MB-231, 11.8 µM (inactive). For the same compound, the GI50 is 13.3 µM (inactive) in the assay on SN12C; 17.1 µM (inactive) with SF-268; 11.7 µM (inactive) in the assay with OVCAR-5; 10 µM (inactive) with HOP-62; 15.9 µM (inactive) with UACC-62; 11.3 µM (inactive) with SNB-75.
As for `CCOC(=O)C1(Br)C(c2ccccc2)NC(=O)NC1(C)Br` (configuration not stated), the GI50 with SK-MEL-2 was > 100 µM (inactive); with SK-MEL-5, 57.4 µM (inactive); in the assay on OVCAR-8, 89.3 µM (inactive); in the assay on Malme-3M, > 100 µM (inactive); with NCI-H23, 67.3 µM (inactive); with HL-60 it was 17.9 µM (inactive). Further, the GI50 in the assay on RPMI-8226 is 62.2 µM (inactive); with ACHN it was > 100 µM (inactive); with MOLT-4 it was 73.3 µM (inactive); in the assay on HCC 2998, > 100 µM (inactive); in the assay on SR, 57.1 µM (inactive); in the assay on UACC-257, 82 µM (inactive). Also, the GI50 with KM12 is > 100 µM (inactive); in the assay on SN12C, 59.6 µM (inactive); in the assay on SF-268 it was > 100 µM (inactive); with OVCAR-5, > 100 µM (inactive); in the assay with HOP-62 it was > 100 µM (inactive); in the assay on UACC-62, 52.8 µM (inactive). The GI50 in the assay on SNB-75 is > 100 µM (inactive).
As for `C=C1CCCC2OC(OC)CCC12` (configuration not stated), the GI50 with SK-MEL-2, in the assay on SK-MEL-5, in the assay on OVCAR-8, in the assay with Malme-3M, in the assay with NCI-H23 and in the assay on HL-60 was > 100 µM (inactive) throughout. Moreover, the GI50 with RPMI-8226, in the assay with ACHN, with MOLT-4, with HCC 2998, in the assay on SR and with UACC-257 was > 100 µM (inactive) throughout. The GI50 in the assay with KM12, in the assay on SN12C, with SF-268, with OVCAR-5, in the assay with HOP-62 and in the assay with UACC-62 was > 100 µM (inactive) each time. For the same compound, in the assay on SNB-75, the GI50 is > 100 µM (inactive).
As to `CCN1CCC(O)(/C=C/c2ccc(Cl)cc2)C(C(=O)/C=C/c2ccc(Cl)cc2)C1` (configuration not stated), the GI50 in the assay on SK-MEL-2 is 69.3 µM (inactive); in the assay with SK-MEL-5, 13.5 µM (inactive); in the assay with OVCAR-8, 24.4 µM (inactive); in the assay on Malme-3M it was > 100 µM (inactive); in the assay on NCI-H23, 20.2 µM (inactive); with HL-60, 17.5 µM (inactive). For the same compound, the GI50 with RPMI-8226 was 2.88 µM (inactive); in the assay on ACHN, 33 µM (inactive); with MOLT-4 it was 23.9 µM (inactive); in the assay on HCC 2998, 18.4 µM (inactive); in the assay on SR, 34.5 µM (inactive); in the assay with UACC-257, 17.5 µM (inactive). For the same compound, the GI50 in the assay with KM12 is 15.2 µM (inactive); with SN12C, > 10 µM (inactive); with SF-268, 30.4 µM (inactive); with OVCAR-5, 30.8 µM (inactive); in the assay on HOP-62, > 100 µM (inactive); in the assay with UACC-62, 17.3 µM (inactive). Besides, in the assay with SNB-75, the GI50 is 33.9 µM (inactive).
Turning to `COc1cc2c(c(OC)c1OC)-c1ccc(SC)c(=O)cc1[C@@H](NC(=O)c1ccc(C#N)cc1)CC2`, the GI50 in the assay on SK-MEL-2, in the assay on SK-MEL-5, with OVCAR-8, in the assay with Malme-3M, with NCI-H23 and in the assay with HL-60 was < 0.01 µM (active) in each case. Also, the GI50 in the assay on RPMI-8226, in the assay with ACHN, in the assay on MOLT-4, with HCC 2998, with SR and in the assay on UACC-257 was < 0.01 µM (active) each time. Besides, the GI50 in the assay on KM12, in the assay on SN12C, in the assay on SF-268, with OVCAR-5, in the assay with HOP-62 and with UACC-62 was < 0.01 µM (active) throughout. Moreover, the GI50 in the assay with SNB-75 is 0.146 µM (active).
